# Results reported in US11760750B1, “Process for preparing levoketoconazole” (Nuray Chemicals Private Limited, priority 2022, dated 2023).
# Tests used:
# Solubility in water = format: physicochemical
# [1] = Powder flow of crystalline levoketoconazole: bulk density, tapped density, Hausner Ratio, Carr Index (USP <1174>); format: physicochemical
# Experimental: The Hausner Ratio is a value calculated by dividing the tapped density of the levoketoconazole by the freely settled bulk density of the levoketoconazole. The freely settled bulk density is calculated by pouring a known weight of material into a measuring cylinder and recording the volume. The tapped density is calculated by tapping the cylinder against a surface for a specified numbers of times and recording again the new volume.
# The Carr (or Compressibility) Index is frequently used in pharmaceutics as an indication of the compressibility of a powder. The Carr Index may be calculated by dividing the difference of the tapped and bulk densities by the tapped density and then multiplying by 100. In a free-flowing powder, the bulk density and tapped density would be close in value; therefore, the Carr Index would be small. On the other hand, in a poor-flowing powder where there are greater interparticle interactions, the difference between the bulk and tapped density observed would be greater, therefore, the Carr Index would be larger.
structure (smiles),measurement,setting,value
"CC(=O)N1CCN(c2ccc(OC[C@@H]3CO[C@@](Cn4ccnc4)(c4ccc(Cl)cc4Cl)O3)cc2)CC1 [crystalline levoketoconazole, (2S,4R)-cis-1-acetyl-4-[4-[[2-(2,4-dichlorophenyl)-2-(1H-imidazol-1-ylmethyl)-1,3-dioxolan-4-yl]methoxyl]phenyl] piperazine]",solubility in water,Solubility in water,poorly soluble in water
same,Carr Index (Compressibility Index),[1],below 15
same,flowability (flow character by Hausner Ratio),[1],good
same,bulk density,"[1]; 100 g sample, 250 mL graduated cylinder",about 0.576 g/mL
same,Hausner Ratio,[1]; 500 taps,1.120
same,Hausner Ratio,[1]; 1250 taps,1.18
same,tapped density,[1]; after 500 taps,about 0.686 g/mL
same,tapped density,"[1]; after 1,250 taps",about 0.681 g/mL
